Results taken from doi:10.1101/2023.11.24.568596v1 (biorxiv, 2023).

Tests used:
Settings in all cases: binder
[1] = biological target: PAK1 (Homo sapiens, UniProt Q13153)
[2] = biological target: T1, MAP3K5 (Homo sapiens, UniProt Q99683)
T1 sequence (Q99683 1-1374): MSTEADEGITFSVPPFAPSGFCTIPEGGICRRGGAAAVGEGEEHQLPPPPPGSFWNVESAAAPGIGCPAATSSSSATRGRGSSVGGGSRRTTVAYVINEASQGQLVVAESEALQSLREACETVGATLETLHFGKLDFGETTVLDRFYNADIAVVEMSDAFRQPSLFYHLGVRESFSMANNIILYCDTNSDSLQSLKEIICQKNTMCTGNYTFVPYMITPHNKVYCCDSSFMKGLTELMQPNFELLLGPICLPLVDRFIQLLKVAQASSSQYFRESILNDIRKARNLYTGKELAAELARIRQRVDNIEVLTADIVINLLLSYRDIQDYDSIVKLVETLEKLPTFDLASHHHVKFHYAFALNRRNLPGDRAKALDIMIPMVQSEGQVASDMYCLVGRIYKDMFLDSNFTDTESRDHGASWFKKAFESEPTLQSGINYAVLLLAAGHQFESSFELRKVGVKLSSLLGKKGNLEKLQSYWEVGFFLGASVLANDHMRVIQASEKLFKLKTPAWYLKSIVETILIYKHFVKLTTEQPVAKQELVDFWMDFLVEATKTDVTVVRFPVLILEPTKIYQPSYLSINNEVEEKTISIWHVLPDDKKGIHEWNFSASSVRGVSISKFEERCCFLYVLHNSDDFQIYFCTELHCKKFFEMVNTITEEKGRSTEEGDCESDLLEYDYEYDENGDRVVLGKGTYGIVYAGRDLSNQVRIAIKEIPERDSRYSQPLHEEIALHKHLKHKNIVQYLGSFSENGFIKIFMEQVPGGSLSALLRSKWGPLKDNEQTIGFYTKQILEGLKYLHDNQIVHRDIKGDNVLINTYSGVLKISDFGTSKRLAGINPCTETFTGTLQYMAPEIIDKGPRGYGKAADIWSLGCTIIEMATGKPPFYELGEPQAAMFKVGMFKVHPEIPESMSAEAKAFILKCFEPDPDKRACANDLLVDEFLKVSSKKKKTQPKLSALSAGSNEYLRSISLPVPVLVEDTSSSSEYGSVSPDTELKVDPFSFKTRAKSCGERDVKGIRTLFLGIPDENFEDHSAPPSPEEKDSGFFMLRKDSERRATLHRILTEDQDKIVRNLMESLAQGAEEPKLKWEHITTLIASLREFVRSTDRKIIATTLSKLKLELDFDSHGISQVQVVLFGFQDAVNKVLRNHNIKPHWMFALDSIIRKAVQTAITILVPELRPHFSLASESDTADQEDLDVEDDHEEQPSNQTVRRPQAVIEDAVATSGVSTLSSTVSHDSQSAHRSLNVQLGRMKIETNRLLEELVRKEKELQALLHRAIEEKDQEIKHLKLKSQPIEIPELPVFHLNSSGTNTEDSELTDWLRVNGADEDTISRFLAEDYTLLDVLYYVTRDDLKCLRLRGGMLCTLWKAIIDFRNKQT

[3] = biological target: T2, BMX (Homo sapiens, UniProt P51813)
T2 sequence (P51813 1-675): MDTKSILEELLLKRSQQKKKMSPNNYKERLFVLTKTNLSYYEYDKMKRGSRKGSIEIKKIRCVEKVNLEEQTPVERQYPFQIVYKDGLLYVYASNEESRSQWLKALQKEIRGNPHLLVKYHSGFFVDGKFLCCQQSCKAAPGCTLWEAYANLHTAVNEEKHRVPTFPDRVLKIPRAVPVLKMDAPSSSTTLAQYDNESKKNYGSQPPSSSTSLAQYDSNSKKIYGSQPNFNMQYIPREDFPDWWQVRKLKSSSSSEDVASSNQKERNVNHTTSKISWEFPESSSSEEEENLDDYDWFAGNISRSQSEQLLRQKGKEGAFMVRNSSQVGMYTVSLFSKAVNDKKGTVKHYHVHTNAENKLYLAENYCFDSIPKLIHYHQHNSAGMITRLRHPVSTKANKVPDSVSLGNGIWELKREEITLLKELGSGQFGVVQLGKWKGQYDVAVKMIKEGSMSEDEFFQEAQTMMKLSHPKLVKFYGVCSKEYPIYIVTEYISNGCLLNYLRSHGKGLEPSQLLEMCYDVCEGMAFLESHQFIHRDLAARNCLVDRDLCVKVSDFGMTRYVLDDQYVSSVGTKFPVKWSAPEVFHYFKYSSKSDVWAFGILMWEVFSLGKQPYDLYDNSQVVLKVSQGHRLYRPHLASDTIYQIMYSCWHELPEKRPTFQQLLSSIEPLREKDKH

[4] = biological target: DAPK3 (Homo sapiens, UniProt O43293)
[5] = biological target: T3, MARK4 (Homo sapiens, UniProt Q96L34)
T3 sequence (Q96L34 1-752): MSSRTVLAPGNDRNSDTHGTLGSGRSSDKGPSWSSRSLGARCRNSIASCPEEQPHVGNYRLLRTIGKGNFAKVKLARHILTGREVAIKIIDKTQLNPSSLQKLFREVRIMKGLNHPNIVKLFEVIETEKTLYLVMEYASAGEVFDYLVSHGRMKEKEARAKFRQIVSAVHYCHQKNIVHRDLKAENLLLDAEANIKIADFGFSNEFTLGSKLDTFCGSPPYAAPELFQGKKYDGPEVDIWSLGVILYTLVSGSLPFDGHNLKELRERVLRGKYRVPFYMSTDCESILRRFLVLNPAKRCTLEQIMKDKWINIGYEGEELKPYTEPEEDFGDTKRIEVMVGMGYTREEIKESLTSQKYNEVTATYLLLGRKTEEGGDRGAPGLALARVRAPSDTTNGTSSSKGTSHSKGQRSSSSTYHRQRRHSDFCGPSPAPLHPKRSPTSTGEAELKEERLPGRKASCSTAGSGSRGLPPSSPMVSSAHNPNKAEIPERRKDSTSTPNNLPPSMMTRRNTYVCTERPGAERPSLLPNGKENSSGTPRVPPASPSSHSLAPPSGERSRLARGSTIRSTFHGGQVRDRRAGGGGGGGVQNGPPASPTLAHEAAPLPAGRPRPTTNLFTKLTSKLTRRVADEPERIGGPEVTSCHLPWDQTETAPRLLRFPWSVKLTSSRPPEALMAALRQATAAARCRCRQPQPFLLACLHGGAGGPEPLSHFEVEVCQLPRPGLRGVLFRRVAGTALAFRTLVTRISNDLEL

Chain of PAK1 (Q13153 whole entry): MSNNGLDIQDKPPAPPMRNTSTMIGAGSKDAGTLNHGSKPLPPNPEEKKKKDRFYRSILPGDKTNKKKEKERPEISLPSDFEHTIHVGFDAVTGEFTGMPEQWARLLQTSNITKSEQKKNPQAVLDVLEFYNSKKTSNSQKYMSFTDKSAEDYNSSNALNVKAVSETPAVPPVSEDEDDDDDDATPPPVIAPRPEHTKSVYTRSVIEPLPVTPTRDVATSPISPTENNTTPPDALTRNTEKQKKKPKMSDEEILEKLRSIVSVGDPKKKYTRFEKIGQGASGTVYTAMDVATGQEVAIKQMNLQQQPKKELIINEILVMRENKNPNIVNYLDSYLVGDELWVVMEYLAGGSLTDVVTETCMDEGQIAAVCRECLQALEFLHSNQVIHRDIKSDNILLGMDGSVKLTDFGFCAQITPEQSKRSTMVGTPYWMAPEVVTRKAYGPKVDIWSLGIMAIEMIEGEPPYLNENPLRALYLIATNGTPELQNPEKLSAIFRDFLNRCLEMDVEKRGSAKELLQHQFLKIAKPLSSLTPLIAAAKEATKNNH
Chain of DAPK3 (O43293 whole entry): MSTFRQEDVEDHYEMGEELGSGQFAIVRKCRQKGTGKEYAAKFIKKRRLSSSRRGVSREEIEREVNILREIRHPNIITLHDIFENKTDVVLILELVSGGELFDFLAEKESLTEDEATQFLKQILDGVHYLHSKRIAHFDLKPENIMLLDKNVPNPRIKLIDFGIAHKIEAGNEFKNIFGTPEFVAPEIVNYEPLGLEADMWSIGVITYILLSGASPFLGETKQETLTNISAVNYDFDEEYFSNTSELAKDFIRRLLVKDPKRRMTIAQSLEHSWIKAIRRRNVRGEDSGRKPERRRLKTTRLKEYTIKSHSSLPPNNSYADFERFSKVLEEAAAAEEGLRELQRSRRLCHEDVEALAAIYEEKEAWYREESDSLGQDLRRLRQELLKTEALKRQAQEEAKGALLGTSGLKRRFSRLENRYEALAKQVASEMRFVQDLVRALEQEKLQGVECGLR

With `Cc1cccc(-c2ccc(-c3cc4cnc(Nc5cc(C(F)(F)F)ccc5C)nc4n(CCCCN)c3=O)c(Cl)c2)n1` [compound 28, 8-(4-Aminobutyl)-6-(2-chloro-4-(6-methylpyridin-2-yl)phenyl)-2-((2-methyl-5-(trifluoromethyl)phenyl)amino)pyrido[2,3-d]pyrimidin-7(8H)-one] the “ΔTm 28” value [1] was 6.0 °C, the “ΔTm 28” value [2] was 12.2 °C and the “ΔTm 28” value [3] was 3.1 °C. For the same molecule, the “ΔTm 28” value [4] was 1.0 °C and the “ΔTm 28” value [5] was 2.2 °C.
For `Cc1cccc(-c2ccc(-c3cc4cnc(Nc5ccc(CCCO)cc5)nc4n(CCCCN)c3=O)c(Cl)c2)n1` [compound 30, 8-(4-Aminobutyl)-6-(2-chloro-4-(6-methylpyridin-2-yl)phenyl)-2-((4-(3-hydroxypropyl)phenyl)amino)pyrido[2,3-d]pyrimidin-7(8H)-one], the “ΔTm 30” value [1] was 10.7 °C, the “ΔTm 30” value [2] was 13.1 °C and the “ΔTm 30” value [3] was 6.6 °C. For the same molecule, the “ΔTm 30” value [4] was 2.9 °C and the “ΔTm 30” value [5] was 9.5 °C.
With `Cc1cccc(-c2ccc(-c3cc4cnc(Nc5ccc(C)c(O)c5)nc4n(CCCCN)c3=O)c(Cl)c2)n1` [compound 32, 8-(4-Aminobutyl)-6-(2-chloro-4-(6-methylpyridin-2-yl)phenyl)-2-((3-hydroxy-4-methylphenyl)amino)pyrido[2,3-d]pyrimidin-7(8H)-one] the “ΔTm 32” value [1] was 10.4 °C, the “ΔTm 32” value [2] was 12.7 °C and the “ΔTm 32” value [3] was 7.3 °C. The “ΔTm 32” value [4] was 2.6 °C and the “ΔTm 32” value [5] was 9.9 °C.
In the case of `Cc1cccc(-c2ccc(-c3cc4cnc(NCCCN5CCCC5=O)nc4n(CCCCN)c3=O)c(Cl)c2)n1` [compound 27, MR30], the “ΔTm MR30 (27)” value [1] is reported as 4.6 °C, the “ΔTm MR30 (27)” value [2] is reported as 9.2 °C and the “ΔTm MR30 (27)” value [3] is reported as 1.7 °C. The “ΔTm MR30 (27)” value [4] was 0.6 °C and the “ΔTm MR30 (27)” value [5] was 3.8 °C.
In the case of `Cc1cccc(-c2ccc(-c3cc4cnc(Nc5ccc(O)cc5)nc4n(CCCCN)c3=O)c(Cl)c2)n1` [compound 31, 8-(4-Aminobutyl)-6-(2-chloro-4-(6-methylpyridin-2-yl)phenyl)-2-((4-hydroxyphenyl)amino) pyrido[2,3-d]pyrimidin-7(8H)-one], the “ΔTm 31” value [1] is reported as 10.6 °C, the “ΔTm 31” value [2] is reported as 12.3 °C and the “ΔTm 31” value [3] is reported as 7.0 °C. For the same molecule, the “ΔTm 31” value [4] was 2.0 °C and the “ΔTm 31” value [5] was 10.4 °C.
With `Cc1cccc(-c2ccc(-c3cc4cnc(NCCCN5CCNCC5)nc4n(CCCCN)c3=O)c(Cl)c2)n1` [compound 29, 8-(4-Aminobutyl)-6-(2-chloro-4-(6-methylpyridin-2-yl)phenyl)-2-((3-(piperazin-1-yl)propyl)amino)pyrido[2,3-d]pyrimidin-7(8H)-one] the “ΔTm 29” value [1] was 7.1 °C, the “ΔTm 29” value [2] was 9.6 °C and the “ΔTm 29” value [3] was 2.1 °C. The “ΔTm 29” value [4] was 0.0 °C and the “ΔTm 29” value [5] was 4.8 °C.
